Laboratory results: PubChem BioAssay (NCI)
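Protocol summary: plate cells (96-well), add compound at 5 concentrations, incubate 48 h, interpolate endpoints linearly. TGI: total growth inhibition.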

Tests used:
Experiment in all cases: inhibition of tumour cell growth, NCI panel, 48 h
A549 NSCLC = tested on: A549 NSCLC
ACHN renal = tested on: ACHN renal
COLO 205 colon = tested on: COLO 205 colon
DMS 114 small cell lung = tested on: DMS 114 small cell lung
DMS 273 small cell lung = tested on: DMS 273 small cell lung
EKVX NSCLC = tested on: EKVX NSCLC
HCC-2998 colon = tested on: HCC-2998 colon
HCT-116 colon = tested on: HCT-116 colon
HCT-15 colon = tested on: HCT-15 colon
HOP-62 NSCLC = tested on: HOP-62 NSCLC
HOP-92 NSCLC = tested on: HOP-92 NSCLC
HT29 colon = tested on: HT29 colon
IGROV1 ovarian = tested on: IGROV1 ovarian
KM12 colon = tested on: KM12 colon
KM20L2 colon = tested on: KM20L2 colon
LOX IMVI melanoma = tested on: LOX IMVI melanoma
LXFL 529 NSCLC = tested on: LXFL 529 NSCLC
M14 melanoma = tested on: M14 melanoma
M19-MEL melanoma = tested on: M19-MEL melanoma
NCI-H23 lung = tested on: NCI-H23 lung
NCI-H460 lung = tested on: NCI-H460 lung
OVCAR-3 ovarian = tested on: OVCAR-3 ovarian
OVCAR-4 ovarian = tested on: OVCAR-4 ovarian
OVCAR-5 ovarian = tested on: OVCAR-5 ovarian
OVCAR-8 ovarian = tested on: OVCAR-8 ovarian
RPMI-8226 leukemia = tested on: RPMI-8226 leukemia
RXF 393 renal = tested on: RXF 393 renal
SF-268 CNS = tested on: SF-268 CNS
SF-539 CNS = tested on: SF-539 CNS
SK-MEL-2 melanoma = tested on: SK-MEL-2 melanoma
SK-MEL-28 melanoma = tested on: SK-MEL-28 melanoma
SK-MEL-5 melanoma = tested on: SK-MEL-5 melanoma
SN12C renal = tested on: SN12C renal
SNB-19 CNS = tested on: SNB-19 CNS
SNB-75 CNS = tested on: SNB-75 CNS
SNB-78 CNS = tested on: SNB-78 CNS
SW-620 colon = tested on: SW-620 colon
TK-10 renal = tested on: TK-10 renal
U251 CNS = tested on: U251 CNS
UACC-257 melanoma = tested on: UACC-257 melanoma
UACC-62 melanoma = tested on: UACC-62 melanoma
UO-31 renal = tested on: UO-31 renal
786-0 renal = tested on: 786-0 renal
A498 renal = tested on: A498 renal
BT-549 breast = tested on: BT-549 breast
CAKI-1 renal = tested on: CAKI-1 renal
CCRF-CEM leukemia = tested on: CCRF-CEM leukemia
DU-145 prostate = tested on: DU-145 prostate
HL-60(TB) leukemia = tested on: HL-60(TB) leukemia
HS 578T breast = tested on: HS 578T breast
K-562 leukemia = tested on: K-562 leukemia
MALME-3M melanoma = tested on: MALME-3M melanoma
MCF7 breast = tested on: MCF7 breast
MDA-MB-231 breast = tested on: MDA-MB-231 breast
MDA-MB-435 = tested on: MDA-MB-435
MDA-N = tested on: MDA-N
MOLT-4 leukemia = tested on: MOLT-4 leukemia
NCI-H226 lung = tested on: NCI-H226 lung
NCI-H522 lung = tested on: NCI-H522 lung
NCI/ADR-RES ovarian = tested on: NCI/ADR-RES ovarian
PC-3 prostate = tested on: PC-3 prostate
SF-295 CNS = tested on: SF-295 CNS
SK-OV-3 ovarian = tested on: SK-OV-3 ovarian
SR leukemia = tested on: SR leukemia
T-47D breast = tested on: T-47D breast

Clc1ccc(-c2nnc(-c3nsc4ccccc34)o2)cc1
TGI (A549 NSCLC): > 100 µM
TGI (ACHN renal): > 100 µM
TGI (COLO 205 colon): > 100 µM
TGI (DMS 114 small cell lung): > 100 µM
TGI (DMS 273 small cell lung): > 100 µM
TGI (EKVX NSCLC): > 100 µM
TGI (HCC-2998 colon): 93.7 µM
TGI (HCT-116 colon): 42.9 µM
TGI (HCT-15 colon): > 100 µM
TGI (HOP-62 NSCLC): 33.6 µM
TGI (HOP-92 NSCLC): 46.2 µM
TGI (HT29 colon): > 100 µM
TGI (IGROV1 ovarian): > 100 µM
TGI (KM12 colon): > 100 µM
TGI (KM20L2 colon): > 100 µM
TGI (LOX IMVI melanoma): > 100 µM
TGI (LXFL 529 NSCLC): > 100 µM
TGI (M14 melanoma): > 100 µM
TGI (M19-MEL melanoma): > 100 µM
TGI (NCI-H23 lung): 74.1 µM
TGI (NCI-H460 lung): > 100 µM
TGI (OVCAR-3 ovarian): 32 µM
TGI (OVCAR-4 ovarian): 34.5 µM
TGI (OVCAR-5 ovarian): > 100 µM
TGI (OVCAR-8 ovarian): > 100 µM
TGI (RPMI-8226 leukemia): > 100 µM
TGI (RXF 393 renal): 99.4 µM
TGI (SF-268 CNS): 66.6 µM
TGI (SF-539 CNS): 48.9 µM
TGI (SK-MEL-2 melanoma): > 100 µM
TGI (SK-MEL-28 melanoma): > 100 µM
TGI (SK-MEL-5 melanoma): > 100 µM
TGI (SN12C renal): > 100 µM
TGI (SNB-19 CNS): > 100 µM
TGI (SNB-75 CNS): 24.6 µM
TGI (SNB-78 CNS): > 100 µM
TGI (SW-620 colon): > 100 µM
TGI (TK-10 renal): 51.2 µM
TGI (U251 CNS): 33.5 µM
TGI (UACC-257 melanoma): > 100 µM
TGI (UACC-62 melanoma): > 100 µM
TGI (UO-31 renal): 47.5 µM

CN(CCCNC(=O)c1c2ccc3ccccc3c2nn1C)CCCNC(=O)c1c2ccc3ccccc3c2nn1C
TGI (786-0 renal): 25.7 µM
TGI (A498 renal): 15.7 µM
TGI (A549 NSCLC): 26.9 µM
TGI (ACHN renal): 23.8 µM
TGI (BT-549 breast): 24 µM
TGI (CAKI-1 renal): 15.3 µM
TGI (CCRF-CEM leukemia): 23.6 µM
TGI (COLO 205 colon): 3.54 µM
TGI (DU-145 prostate): 44.4 µM
TGI (EKVX NSCLC): 22.3 µM
TGI (HCC-2998 colon): 3.44 µM
TGI (HCT-116 colon): 28 µM
TGI (HCT-15 colon): 19.4 µM
TGI (HL-60(TB) leukemia): 29.8 µM
TGI (HOP-62 NSCLC): 33.7 µM
TGI (HOP-92 NSCLC): 12.7 µM
TGI (HS 578T breast): 30.3 µM
TGI (HT29 colon): 6.93 µM
TGI (IGROV1 ovarian): 23.3 µM
TGI (K-562 leukemia): 12 µM
TGI (KM12 colon): 23.7 µM
TGI (LOX IMVI melanoma): 9.18 µM
TGI (M14 melanoma): 3.99 µM
TGI (MALME-3M melanoma): 8.71 µM
TGI (MCF7 breast): 15.6 µM
TGI (MDA-MB-231 breast): 25.8 µM
TGI (MDA-MB-435): 6.09 µM
TGI (MDA-N): 8.91 µM
TGI (MOLT-4 leukemia): 24 µM
TGI (NCI-H226 lung): 31.1 µM
TGI (NCI-H23 lung): 29.4 µM
TGI (NCI-H460 lung): 18.4 µM
TGI (NCI-H522 lung): 19.7 µM
TGI (NCI/ADR-RES ovarian): 29.3 µM
TGI (OVCAR-3 ovarian): 37.3 µM
TGI (OVCAR-4 ovarian): 24 µM
TGI (OVCAR-5 ovarian): 25.4 µM
TGI (OVCAR-8 ovarian): 27.2 µM
TGI (PC-3 prostate): 27.5 µM
TGI (RPMI-8226 leukemia): 4.86 µM
TGI (RXF 393 renal): 20 µM
TGI (SF-268 CNS): 25.6 µM
TGI (SF-295 CNS): 9.77 µM
TGI (SF-539 CNS): 17.8 µM
TGI (SK-MEL-2 melanoma): 13.3 µM
TGI (SK-MEL-28 melanoma): 4.6 µM
TGI (SK-MEL-5 melanoma): 5.92 µM
TGI (SK-OV-3 ovarian): 28.4 µM
TGI (SN12C renal): 25.6 µM
TGI (SNB-19 CNS): 28.6 µM
TGI (SNB-75 CNS): 21.4 µM
TGI (SR leukemia): 13 µM
TGI (SW-620 colon): 21.3 µM
TGI (T-47D breast): 32.2 µM
TGI (TK-10 renal): 18.1 µM
TGI (U251 CNS): 22.1 µM
TGI (UACC-257 melanoma): 3.57 µM
TGI (UACC-62 melanoma): 3.76 µM
TGI (UO-31 renal): 19.9 µM

CCCC(=O)OC1C(C2COC(C)(C)O2)OC2OC(C)(C)OC21 (stereo not given)
TGI (A498 renal): > 100 µM
TGI (ACHN renal): > 100 µM
TGI (CCRF-CEM leukemia): > 100 µM
TGI (DMS 114 small cell lung): > 100 µM
TGI (DMS 273 small cell lung): > 100 µM
TGI (EKVX NSCLC): > 100 µM
TGI (HCT-116 colon): > 100 µM
TGI (HL-60(TB) leukemia): > 100 µM
TGI (HOP-62 NSCLC): > 100 µM
TGI (HOP-92 NSCLC): > 100 µM
TGI (HT29 colon): > 100 µM
TGI (IGROV1 ovarian): > 100 µM
TGI (K-562 leukemia): > 100 µM
TGI (KM12 colon): > 100 µM
TGI (KM20L2 colon): > 100 µM
TGI (M14 melanoma): > 100 µM
TGI (M19-MEL melanoma): > 100 µM
TGI (MOLT-4 leukemia): > 100 µM
TGI (NCI-H23 lung): > 100 µM
TGI (NCI-H460 lung): > 100 µM
TGI (NCI-H522 lung): > 100 µM
TGI (OVCAR-5 ovarian): > 100 µM
TGI (OVCAR-8 ovarian): > 100 µM
TGI (RXF 393 renal): > 100 µM
TGI (SF-295 CNS): > 100 µM
TGI (SK-MEL-28 melanoma): > 100 µM
TGI (SK-OV-3 ovarian): > 100 µM
TGI (SNB-19 CNS): > 100 µM
TGI (SNB-78 CNS): > 100 µM
TGI (SR leukemia): > 100 µM
TGI (TK-10 renal): > 100 µM
TGI (U251 CNS): > 100 µM
TGI (UACC-257 melanoma): > 100 µM
TGI (UACC-62 melanoma): > 100 µM
TGI (UO-31 renal): > 100 µM

Cn1c(CC(O)c2nc3ccccc3n2C)nc2ccccc21 (stereo not given)
TGI (786-0 renal): > 68.6 µM
TGI (A498 renal): > 51.1 µM
TGI (A549 NSCLC): > 100 µM
TGI (ACHN renal): > 33.9 µM
TGI (BT-549 breast): > 63.2 µM
TGI (CAKI-1 renal): > 100 µM
TGI (CCRF-CEM leukemia): 17.3 µM
TGI (COLO 205 colon): > 35.8 µM
TGI (DU-145 prostate): > 21.7 µM
TGI (EKVX NSCLC): > 100 µM
TGI (HCC-2998 colon): > 100 µM
TGI (HCT-116 colon): > 34.9 µM
TGI (HCT-15 colon): > 49.5 µM
TGI (HL-60(TB) leukemia): 4.13 µM
TGI (HOP-62 NSCLC): > 19.1 µM
TGI (HOP-92 NSCLC): > 38.7 µM
TGI (HS 578T breast): > 24.2 µM
TGI (HT29 colon): > 54.3 µM
TGI (IGROV1 ovarian): > 40.6 µM
TGI (K-562 leukemia): > 47.9 µM
TGI (KM12 colon): > 100 µM
TGI (LOX IMVI melanoma): > 47.7 µM
TGI (M14 melanoma): > 49.8 µM
TGI (MALME-3M melanoma): > 35.5 µM
TGI (MCF7 breast): > 47.2 µM
TGI (MDA-MB-231 breast): > 53.7 µM
TGI (MDA-MB-435): > 44.4 µM
TGI (MDA-N): > 100 µM
TGI (MOLT-4 leukemia): > 27.9 µM
TGI (NCI-H226 lung): > 72.3 µM
TGI (NCI-H23 lung): > 48.6 µM
TGI (NCI-H460 lung): > 46.9 µM
TGI (NCI-H522 lung): > 8.21 µM
TGI (NCI/ADR-RES ovarian): > 67.9 µM
TGI (OVCAR-3 ovarian): > 19.4 µM
TGI (OVCAR-4 ovarian): > 30.1 µM
TGI (OVCAR-5 ovarian): > 74.3 µM
TGI (OVCAR-8 ovarian): > 47.8 µM
TGI (PC-3 prostate): > 58.8 µM
TGI (RPMI-8226 leukemia): > 19.1 µM
TGI (RXF 393 renal): > 39.4 µM
TGI (SF-268 CNS): > 28.9 µM
TGI (SF-295 CNS): > 100 µM
TGI (SF-539 CNS): > 56 µM
TGI (SK-MEL-2 melanoma): > 58.5 µM
TGI (SK-MEL-28 melanoma): > 60.9 µM
TGI (SK-MEL-5 melanoma): > 42.8 µM
TGI (SK-OV-3 ovarian): > 45.2 µM
TGI (SN12C renal): > 57.9 µM
TGI (SNB-19 CNS): > 87.7 µM
TGI (SNB-75 CNS): > 100 µM
TGI (SR leukemia): > 100 µM
TGI (SW-620 colon): > 47 µM
TGI (T-47D breast): > 16.7 µM
TGI (TK-10 renal): > 36.4 µM
TGI (U251 CNS): > 48.8 µM
TGI (UACC-257 melanoma): > 47.8 µM
TGI (UACC-62 melanoma): > 61.5 µM
TGI (UO-31 renal): > 9.39 µM
